Test results reported in patent publication US6967215B2, “Tetrahydrocarbazoles, a process for the preparation of those compounds, and the use thereof” (Ciba Specialty Chemicals Corporation, priority 2000, dated 2005).
Each block holds one compound with its values, some of them ahead of it.

Legend:
Experiment in all cases: MIC, microtitre dilution test (growth by optical density at 620 nm)
[1] = tested on: Actinomyces viscosus DSM 43329; format: cell-based; settings: Table 4
Method: (§1) Casein/soybean flour peptone bouillon for the preparation of pre-cultures of the test bacteria and yeast.
(§2) The test substances are predissolved in dimethyl sulfoxide (DMSO) and tested in a dilution series of 1:2.
(§3) Bacteria and yeast are cultured overnight in CASO bouillon, the mould is cultured overnight on mycological slant agar, and washed off with 10 ml of 0.85% sodium chloride solution (+0.1% TritonX-100).
(§4) All the test organisms are adjusted to an organism count of 1-5×10^6 CFU/ml using 0.85% sodium chloride solution.
(§5) The test substances are pre-pipetted into microtitre plates in an amount of 8 μl per well.
(§6) Pre-diluted organism suspensions are diluted 1:100 in CASO bouillon (bacteria and yeast) or Sabouraud 2% glucose bouillon (mould) and are added in an amount of 192 μl per well to the test substances.
(§7) The test batches are incubated for 48 hours at 37° C. (bacteria and yeast) or for 5 days at 28° C. (mould).
(§8) After incubation, the growth is evaluated by reference to the turbidity of the test batches (optical density) at 620 nm in a microplate reader.
(§9) The minimum inhibitory concentration (MIC value) is the concentration of substance at which (compared with the growth of the control) an appreciable inhibition of growth (≦20% growth) of the test organisms is ascertained.
(§10) One microtitre plate is used for each test organism and substance concentration. All the substances are tested in duplicate.

[2] = tested on: Propionibacterium acnes ATCC 25746; format: cell-based; settings: Table 4
Method: as §1, §2, §3, §4, §5, §6, §7, §8, §9, §10

[3] = tested on: Streptococcus mutans ATCC 25175; format: cell-based; settings: Table 4
Method: as §1, §2, §3, §4, §5, §6, §7, §8, §9, §10

[4] = tested on: Selenomonas artemidis ATCC 43528; format: cell-based; settings: Table 4
Method: as §1, §2, §3, §4, §5, §6, §7, §8, §9, §10

[5] = tested on: Staphylococcus epidermidis ATCC 12228; format: cell-based; settings: for MIC Staphylococcus epidermidis ATCC 12228: Table 3
Method: as §1, §2, §3, §4, §5, §6, §7, §8, §9, §10

[6] = tested on: Micrococcus luteus ATCC 9341; format: cell-based
Method: as §1, §2, §3, §4, §5, §6, §7, §8, §9, §10

[7] = tested on: Enterococcus hirae ATCC 10541; format: cell-based
Method: as §1, §2, §3, §4, §5, §6, §7, §8, §9, §10

[8] = tested on: Candida albicans ATCC 10259; format: cell-based
Method: as §1, §2, §3, §4, §5, §6, §7, §8, §9, §10

[9] = tested on: Staphylococcus aureus (methicillin-resistant) NCTC 11940; format: cell-based; settings: Table 4
Method: as §1, §2, §3, §4, §5, §6, §7, §8, §9, §10

P. ovale ATCC 14521 = format: cell-based; settings: Table 4
Method: as §1, §2, §3, §4, §5, §6, §7, §8, §9, §10

[10] = tested on: Staphylococcus aureus (rifampicin-resistant) NCTC 10703; format: cell-based; settings: Table 4
Method: as §1, §2, §3, §4, §5, §6, §7, §8, §9, §10

[11] = tested on: Staphylococcus aureus (penicillin-resistant) NCTC 10443; format: cell-based; settings: Table 4
Method: as §1, §2, §3, §4, §5, §6, §7, §8, §9, §10

[12] = tested on: Staphylococcus aureus (methicillin-resistant) NCTC 12493; format: cell-based; settings: Table 4
Method: as §1, §2, §3, §4, §5, §6, §7, §8, §9, §10

[13] = tested on: Streptococcus sobrinus DSM 20742; format: cell-based; settings: Table 4
Method: as §1, §2, §3, §4, §5, §6, §7, §8, §9, §10

[14] = tested on: Staphylococcus hominis DMS 20328; format: cell-based; settings: for MIC [ppm] S. hominis: Table 5
Method: as §1, §2, §3, §4, §5, §6, §7, §8, §9, §10

[15] = tested on: Porphyromonas gingivalis DSM 20709; format: cell-based; settings: Table 4
Method: as §1, §2, §3, §4, §5, §6, §7, §8, §9, §10

[16] = tested on: Corynebacterium xerosis ATCC 373; format: cell-based
Method: as §1, §2, §3, §4, §5, §6, §7, §8, §9, §10

[17] = tested on: Staphylococus aureus ATCC 9144; format: cell-based, Staphylococcus aureus; settings: Table 4
Method: (§11) All the test organisms are adjusted to an organism count of 1-5×10^6 CFU/ml using 0.85% sodium chloride solution. The test substances are pre-pipetted into microtitre plates in an amount of 8 μl per well. Pre-diluted organism suspensions are diluted 1:100 in CASO bouillon (bacteria and yeast) or Sabouraud 2% glucose bouillon (mould) and are added in an amount of 192 μl per well to the test substances. The test batches are incubated for 48 hours at 37° C. (bacteria and yeast) or for 5 days at 28° C. (mould). After incubation, the growth is evaluated by reference to the turbidity of the test batches (optical density) at 620 nm in a microplate reader. The minimum inhibitory concentration (MIC value) is the concentration of substance at which (compared with the growth of the control) an appreciable inhibition of growth (≦20% growth) of the test organisms is ascertained. One microtitre plate is used for each test organism and substance concentration. All the substances are tested in duplicate.

[18] = tested on: Aspergillus niger ATCC 6175; format: cell-based; settings: for MIC [ppm] A. niger: Table 5
Method: (§12) Nutrient: Mycological slant agar for the pre-culture of moulds [table] The test substances are predissolved in dimethyl sulfoxide (DMSO) and tested in a dilution series of 1:2. Bacteria and yeast are cultured overnight in CASO bouillon, the mould is cultured overnight on mycological slant agar, and washed off with 10 ml of 0.85% sodium chloride solution (+0.1% TritonX-100). All the test organisms are adjusted to an organism count of 1-5×10^6 CFU/ml using 0.85% sodium chloride solution. The test substances are pre-pipetted into microtitre plates in an amount of 8 μl per well. Pre-diluted organism suspensions are diluted 1:100 in CASO bouillon (bacteria and yeast) or Sabouraud 2% glucose bouillon (mould) and are added in an amount of 192 μl per well to the test substances. The test batches are incubated for 48 hours at 37° C. (bacteria and yeast) or for 5 days at 28° C. (mould). After incubation, the growth is evaluated by reference to the turbidity of the test batches (optical density) at 620 nm in a microplate reader. The minimum inhibitory concentration (MIC value) is the concentration of substance at which (compared with the growth of the control) an appreciable inhibition of growth (≦20% growth) of the test organisms is ascertained. One microtitre plate is used for each test organism and substance concentration. All the substances are tested in duplicate.

[19] = tested on: Tr. mentagrophytes ATCC 9533; format: cell-based; settings: Table 4
Method: as §12

[20] = tested on: Epidermophyton floccosum DSM 10709; format: cell-based; settings: Table 4
Method: as §12

[21] = tested on: Trichophyton rubrum DSM 4167; format: cell-based; settings: Table 4
Method: as §12

[22] = tested on: Trichoderma longibrachiatum DSM 768; format: cell-based; settings: Table 4
Method: as §12

[23] = tested on: Escherichia coli NCTC 8196; format: cell-based; settings: Table 5
Method: as §1, §2, §3, §4, §5, §6, §7, §8, §9, §10

P. aeruginosa = format: cell-based; settings: Table 5
Method: as §11

- MIC Actinomyces viscosus DSM 43329 [1]: 6.25 ppm
- MIC Propionibacterium acnes ATCC 25746 [2]: 6.25 ppm
- MIC Streptococcus mutans ATCC 25175 [3]: 5.0 ppm
- MIC Selenomonas artemidis ATCC 43528 [4]: 50.0 ppm
- MIC S. epidermidis ATCC 12228 ([5]; Table 4): 10 ppm
- MIC Micrococcus luteus ATCC 9341 ([6]; Table 4): 5.0 ppm
- MIC Enterococcus hirae ATCC 10541 ([7]; Table 4): >10 ppm
- MIC Candida albicans ATCC 10259 ([8]; Table 4): >10 ppm
- MIC Staphylococcus aureus (methicillin-resistant) NCTC 11940 [9]: 5.0 ppm
- MIC P. ovale ATCC 14521 (P. ovale ATCC 14521): >10 ppm
- MIC Staphylococcus aureus (rifampicin-resistant) NCTC 10703 [10]: 5.0 ppm
- MIC Staphylococcus aureus (penicillin-resistant) NCTC 10443 [11]: 5.0 ppm
- MIC Staphylococcus aureus (methicillin-resistant) NCTC 12493 [12]: 5.0 ppm
- MIC Streptococcus sobrinus DSM 20742 [13]: 6.25 ppm
- MIC Staphylococcus hominis DSM 20328 ([14]; Table 4): 5.0 ppm
- MIC Porphyromonas gingivalis DSM 20709 [15]: 3.125 ppm
- MIC Corynebacterium xerosis ATCC 373 ([16]; Table 4): 5.0 ppm
- MIC Staphylococus aureus ATCC 9144 [17]: 5.0 ppm
- MIC Aspergillus niger ATCC 6175 ([18]; Table 4): >10 ppm
- MIC Tr. mentagrophytes ATCC 9533 [19]: 10 ppm
- MIC Epidermophyton floccosum DSM 10709 [20]: 5.0 ppm
- MIC Trichophyton rubrum DSM 4167 [21]: 10 ppm
- MIC Trichoderma longibrachiatum DSM 768 [22]: >10 ppm
SMILES: O=C1NC(=O)C2C1c1[nH]c3ccc(Br)cc3c1C1CCCCCC12 (centres unmarked) [compound 32]

- MIC Staphylococcus epidermidis ATCC 12228 [5]: ≦3.75 ppm
- MIC Micrococcus luteus ATCC 9341 ([6]; Table 3): ≦3.75 ppm
- MIC Enterococcus hirae ATCC 10541 ([7]; Table 3): >120 ppm
- MIC Candida albicans ATCC 10259 ([8]; Table 3): >120 ppm
- MIC Staphylococcus hominis DSM 20328 ([14]; Table 3): 7.5 ppm
- MIC Corynebacterium xerosis ATCC 373 ([16]; Table 3): ≦3.75 ppm
SMILES: CCc1cccc2c3c([nH]c12)C1C(=O)NC(=O)C1C1CCCCCCC31 (centres unmarked) [compound 89]

- MIC [ppm] E. coil [23]: >120 ppm
- MIC [ppm] S. hominis [14]: >120 ppm
- MIC [ppm] A. niger [18]: >120 ppm
- MIC [ppm] P. aeruginosa (P. aeruginosa): >120 ppm
SMILES: CCCN1CCC2c3c([nH]c4cc(F)c(F)cc34)C3C(=O)NC(=O)C3C2C1 (centres unmarked) [Compound 219]

- MIC [ppm] E. coil [23]: >120 ppm
- MIC [ppm] S. hominis [14]: 120 ppm
- MIC [ppm] A. niger [18]: >120 ppm
- MIC [ppm] P. aeruginosa (P. aeruginosa): >120 ppm
SMILES: CCCN1CCC2c3c([nH]c4cc(Cl)ccc34)C3C(=O)NC(=O)C3C2C1 (centres unmarked) [Compound 199]

- MIC [ppm] E. coil [23]: >120 ppm
- MIC [ppm] S. hominis [14]: 120 ppm
- MIC [ppm] A. niger [18]: >120 ppm
- MIC [ppm] P. aeruginosa (P. aeruginosa): >120 ppm
SMILES: CCCN1CCC2c3c([nH]c4ccc(C(=O)OC)cc34)C3C(=O)NC(=O)C3C2C1 (centres unmarked) [Compound 235]

- MIC Staphylococcus epidermidis ATCC 12228 [5]: ≦3.75 ppm
- MIC Micrococcus luteus ATCC 9341 ([6]; Table 3): ≦3.75 ppm
- MIC Enterococcus hirae ATCC 10541 ([7]; Table 3): 7.5 ppm
- MIC Candida albicans ATCC 10259 ([8]; Table 3): >120 ppm
- MIC Staphylococcus hominis DSM 20328 ([14]; Table 3): 7.5 ppm
- MIC Corynebacterium xerosis ATCC 373 ([16]; Table 3): ≦3.75 ppm
SMILES: CC1(C)CC2c3c([nH]c4ccccc34)C3C(=O)NC(=O)C3C2C(C)(C)C1 (centres unmarked) [compound 63]

- MIC [ppm] E. coil [23]: >120 ppm
- MIC [ppm] S. hominis [14]: >120 ppm
- MIC [ppm] A. niger [18]: >120 ppm
- MIC [ppm] P. aeruginosa (P. aeruginosa): 120 ppm
SMILES: CCCN1CCC2c3c([nH]c4cccc(Cl)c34)C3C(=O)NC(=O)C3C2C1 (centres unmarked) [Compound 224]

- MIC [ppm] E. coil [23]: >120 ppm
- MIC [ppm] S. hominis [14]: 15 ppm
- MIC [ppm] A. niger [18]: >120 ppm
- MIC [ppm] P. aeruginosa (P. aeruginosa): >120 ppm
SMILES: COc1cccc2[nH]c3c(c12)C1CCCCCCCCCCC1C1C(=O)NC(=O)C31 (centres unmarked) [Compound 188]

- MIC [ppm] E. coil [23]: >120 ppm
- MIC [ppm] S. hominis [14]: >120 ppm
- MIC [ppm] A. niger [18]: >120 ppm
- MIC [ppm] P. aeruginosa (P. aeruginosa): >120 ppm
SMILES: CCCN1CCC2c3c([nH]c4cc(C)ccc34)C3C(=O)NC(=O)C3C2C1 (centres unmarked) [Compound 203]
